Data: the supplement of paper PMC11061612

Columns and labels:
[1] = compound: CS(=O)(=O)CCNCc1ccc(-c2ccc3ncnc(Nc4ccc(OCc5cccc(F)c5)c(Cl)c4)c3c2)o1 [Lapatinib]; settings: max 10 µM
Outline: (§1)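 Viability was measured with CellTiter-Glo 2.0 luminescence after 72 hours of dosing at a final DMSO of typically 0.2%, and scaled between blank-well and DMSO-well means. Beforehand, cancer cell lines sat 24 hours at 37°C and 5% CO2 in 1536-well plates in 7.5 μl DMEM/F12 or RPMI with 10% FBS. A non-linear mixed effects model fitted two-parameter logistic curves to the dose responses. The single-agent IC50 comes from these fits.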

[2] = compound: COc1cccc(OCCCN)c1-c1cc(Nc2cnc(C#N)cn2)n[nH]1 [Prexasertib]; settings: max 1 µM
Outline: as §1

[3] = compound: CC(C)n1c(=O)n(C)c2cnc3cc(F)c(-c4ccc(OCCCN5CCCCC5)nc4)cc3c21 [AZD1390]; settings: max 0.3 µM
Outline: as §1

[4] = compound: C[C@@H](Oc1cc(-c2cnn(C3CCNCC3)c2)cnc1N)c1c(Cl)ccc(F)c1Cl [Crizotinib]; settings: max 10 µM
Outline: as §1

[5] = compound: C[C@@H]1COCCN1C2=NC(=NC(=C2)C3(CC3)[S@](=N)(=O)C)C4=C5C=CNC5=NC=C4 [AZD6738]; settings: max 10 µM
Outline: as §1

[6] = compound: CN(CC[C@H](CSC1=CC=CC=C1)NC2=C(C=C(C=C2)S(=O)(=O)NC(=O)C3=CC=C(C=C3)N4CCC(CC4)[C@H](C5=CC=CC=C5C6=CC=C(C=C6)Cl)O)S(=O)(=O)C(F)(F)F)CCO [AZD4320]; settings: max 1 µM
Outline: as §1

[7] = compound: O=C(c1cc(Cc2n[nH]c(=O)c3ccccc23)ccc1F)N1CCN(C(=O)C2CC2)CC1 [Olaparib]; settings: max 10 µM
Outline: as §1

[8] = compound: C1CC(C1)(C(=O)[O-])C(=O)[O-].N.N.[Pt+2] [Carboplatin]; settings: max 10 µM
Outline: as §1

[9] = compound: CC1=C(C(=CC=C1)Cl)NC(=O)C2=CN=C(S2)NC3=CC(=NC(=N3)C)N4CCN(CC4)CCO [Dasatinib]; settings: max 2 µM
Outline: as §1

[10] = compound: CN(C)CCCOc1ccc(-c2ccc3ncc4c(c3c2)n(C2CCOCC2)c(=O)n4C)cn1 [AZD0156]; settings: max 3 µM
Outline: as §1

[11] = compound: NC1(c2ccc(-c3nc4ccn5c(=O)[nH]nc5c4cc3-c3ccccc3)cc2)CCC1 [MK-2206]; settings: max 10 µM
Outline: as §1

[12] = compound: C=CCn1c(=O)c2cnc(Nc3ccc(N4CCN(C)CC4)cc3)nc2n1-c1cccc(C(C)(C)O)n1 [AZD1775]; settings: max 3 µM
Outline: as §1

[13] = compound: Cc1c2c(nn1C)CSCc1cc(n(C)n1)CSc1cc(c3ccccc3c1)OCCCc1c(C(=O)O)n(C)c3c-2c(Cl)ccc13 [AZD5991]; settings: max 1 µM
Outline: as §1

[14] = compound: CC(=O)O[C@H]1C(=O)[C@@]2(C)[C@H]([C@H](OC(=O)c3ccccc3)[C@]3(O)C[C@H](OC(=O)[C@H](O)[C@@H](NC(=O)c4ccccc4)c4ccccc4)C(C)=C1C3(C)C)[C@]1(OC(C)=O)CO[C@@H]1C[C@@H]2O [Paclitaxel]; settings: max 3 µM
Outline: as §1

[15] = compound: CCc1c2c(nc3ccc(O)cc13)-c1cc3c(c(=O)n1C2)COC(=O)[C@]3(O)CC [SN-38]; settings: max 0.3 µM
Outline: as §1

[16] = compound: C[C@@H](Nc1cc(F)cc(F)c1)c1cc(C(=O)N(C)C)cc2c(=O)cc(N3CCOCC3)oc12 [AZD8186]; settings: max 10 µM
Outline: as §1

[17] = compound: CCN(CCO)CCCOc1ccc2c(Nc3cc(CC(=O)Nc4cccc(F)c4)[nH]n3)ncnc2c1 [AZD2811]; settings: max 1 µM
Outline: as §1

[18] = compound: Cc1nc(-c2cn3c(n2)-c2ccc(-c4cnn(C(C)(C)C(N)=O)c4)cc2OCC3)n(C(C)C)n1 [Taselisib]; settings: max 10 µM
Outline: as §1

[19] = compound: Cn1cnc2c(F)c(Nc3ccc(Br)cc3Cl)c(C(=O)NOCCO)cc21 [Selumetinib]; settings: max 10 µM
Outline: as §1

[20] = compound: N#Cc1cnc(Nc2cc(NC[C@H]3CNCCO3)c(C(F)(F)F)cn2)cn1 [SRA737]; settings: max 10 µM
Outline: as §1

[21] = compound: COc1cc2ncnc(Nc3ccc(F)c(Cl)c3)c2cc1OCCCN1CCOCC1 [Gefitinib]; settings: max 10 µM
Outline: as §1

[22] = compound: CC1(C)CCC(CN2CCN(c3ccc(C(=O)NS(=O)(=O)c4ccc(NCC5CCOCC5)c([N+](=O)[O-])c4)c(Oc4cnc5[nH]ccc5c4)c3)CC2)=C(c2ccc(Cl)cc2)C1 [Venetoclax]; settings: max 1 µM
Outline: as §1

[23] = compound: C[C@@H](c1ccc2nccn2c1)n1nnc2ncc(-c3cnn(C)c3)nc21 [Savolitinib]; settings: max 1 µM
Outline: as §1

[24] = compound: COc1cc([C@@H]2c3cc4c(cc3[C@@H](O[C@@H]3O[C@@H]5CO[C@@H](C)O[C@H]5[C@H](O)[C@H]3O)[C@H]3COC(=O)[C@H]23)OCO4)cc(OC)c1O [Etoposide]; settings: max 10 µM
Outline: as §1

[25] = compound: CC(=O)Nc1cccc(-n2c(=O)n(C3CC3)c(=O)c3c(Nc4ccc(I)cc4F)n(C)c(=O)c(C)c32)c1 [Trametinib]; settings: max 1 µM
Outline: as §1

[26] = compound: Nc1ccn([C@@H]2O[C@H](CO)[C@@H](O)C2(F)F)c(=O)n1 [Gemcitabine]; settings: max 0.3 µM
Outline: as §1

[27] = compound: O=c1[nH]cc(F)c(=O)[nH]1 [5-Fluorouracil]; settings: max 20 µM
Outline: as §1

[28] = compound: COc1nnc2ccc(N3CCC(c4ccc(OCCN5CCN(C)C(=O)[C@H]5C)cc4)CC3)nn12 [AZD5153]; settings: max 1 µM
Outline: as §1

[29] = compound: Cc1cc2ncnn2cc1Nc1ncc2c(n1)n(C1CCOCC1)c(=O)n2C [AZD7648]; settings: max 10 µM
Outline: as §1

[30] = compound: CC1=CN2[C@@H](C1)C=NC3=CC(=C(C=C3C2=O)OC)OCCCCCOC4=C(C=C5C(=C4)N=C[C@@H]6CC(=CN6C5=O)C)OC [SG3199]; settings: max 0.001 µM
Outline: as §1

[31] = compound: CC(=O)c1c(C)c2cnc(Nc3ccc(N4CCNCC4)cn3)nc2n(C2CCCC2)c1=O [Palbociclib]; settings: max 10 µM
Outline: as §1

[32] = compound: C1CN(CCC1(C(=O)N[C@@H](CCO)C2=CC=C(C=C2)Cl)N)C3=NC=NC4=C3C=CN4 [AZD5363]; settings: max 10 µM
Outline: as §1

[33] = compound: COc1cccc2c1C(=O)c1c(O)c3c(c(O)c1C2=O)C[C@@](O)(C(=O)CO)C[C@@H]3O[C@H]1C[C@H](N)[C@H](O)[C@H](C)O1 [Doxorubicin]; settings: max 1 µM
Outline: as §1

[34] = compound: COc1cc(Nc2ncc3c(n2)-c2ccc(Cl)cc2C(c2c(F)cccc2OC)=NC3)ccc1C(=O)O [Alisertib]; settings: max 10 µM
Outline: as §1

[35] = compound: O=C(Nc1ccc2[nH]nc(-c3ccncc3)c2c1)[C@@H]1CCN(CC(=O)N2CCN(c3ccc(-c4ncccn4)cc3)CC2)C1; settings: max 5 µM
Outline: as §1

Cell Line | IC50, cell viability 72 h [1] | IC50, cell viability 72 h [2] | IC50, cell viability 72 h [3] | IC50, cell viability 72 h [4] | IC50, cell viability 72 h [5] | IC50, cell viability 72 h [6] | IC50, cell viability 72 h [7] | IC50, cell viability 72 h [8] | IC50, cell viability 72 h [9] | IC50, cell viability 72 h [10] | IC50, cell viability 72 h [11] | IC50, cell viability 72 h [12] | IC50, cell viability 72 h [13] | IC50, cell viability 72 h [14] | IC50, cell viability 72 h [15] | IC50, cell viability 72 h [16] | IC50, cell viability 72 h [17] | IC50, cell viability 72 h [18] | IC50, cell viability 72 h [19] | IC50, cell viability 72 h [20] | IC50, cell viability 72 h [21] | IC50, cell viability 72 h [22] | IC50, cell viability 72 h [23] | IC50, cell viability 72 h [24] | IC50, cell viability 72 h [25] | IC50, cell viability 72 h [26] | IC50, cell viability 72 h [27] | IC50, cell viability 72 h [28] | IC50, cell viability 72 h [29] | IC50, cell viability 72 h [30] | IC50, cell viability 72 h [31] | IC50, cell viability 72 h [32] | IC50, cell viability 72 h [33] | IC50, cell viability 72 h [34] | IC50, cell viability 72 h [35]
HCC-78 (Lung Adenocarcinoma) | > 10 µM | 0.0996 µM | > 0.3 µM | 9.58 µM | > 10 µM | > 1 µM | > 10 µM | > 10 µM | > 2 µM | > 3 µM | > 10 µM | 1.38 µM | > 1 µM | > 3 µM | 0.00704 µM | > 10 µM | > 1 µM | 5.89 µM | > 10 µM | > 10 µM | > 10 µM | > 1 µM | > 1 µM | 2.35 µM | > 1 µM | 0.0327 µM | > 20 µM | > 1 µM | > 10 µM | > 0.001 µM | > 10 µM | > 10 µM | 0.493 µM | > 10 µM | > 5 µM
DoTc2-4510 (Cervical Carcinoma) | > 10 µM | 0.0595 µM | > 0.3 µM | > 10 µM | > 10 µM | > 1 µM | > 10 µM | > 10 µM | > 2 µM | > 3 µM | > 10 µM | 2.9 µM | > 1 µM | 0.456 µM | 0.00933 µM | > 10 µM | > 1 µM | 4.86 µM | > 10 µM | > 10 µM | > 10 µM | > 1 µM | > 1 µM | > 10 µM | > 1 µM | > 0.3 µM | > 20 µM | > 1 µM | > 10 µM | > 0.001 µM | > 10 µM | > 10 µM | 0.518 µM | > 10 µM | > 5 µM
KURAMOCHI (Ovarian Carcinoma) | > 10 µM | 0.0528 µM | > 0.3 µM | > 10 µM | 6.97 µM | > 1 µM | > 10 µM | > 10 µM | 0.1 µM | > 3 µM | > 10 µM | 2.44 µM | > 1 µM | 1.67 µM | 0.171 µM | > 10 µM | > 1 µM | > 10 µM | > 10 µM | 4.48 µM | > 10 µM | > 1 µM | > 1 µM | > 10 µM | > 1 µM | > 0.3 µM | > 20 µM | 0.14 µM | > 10 µM | > 0.001 µM | > 10 µM | > 10 µM | > 1 µM | > 10 µM | > 5 µM
TE-15 (Esophageal Squamous Cell Carcinoma) | 0.712 µM | 0.0406 µM | > 0.3 µM | > 10 µM | 4.29 µM | > 1 µM | > 10 µM | > 10 µM | 0.136 µM | > 3 µM | > 10 µM | 1.84 µM | > 1 µM | 0.00903 µM | 0.00974 µM | > 10 µM | > 1 µM | 2.23 µM | 8.21 µM | 4.13 µM | – | > 1 µM | > 1 µM | 4.55 µM | 0.693 µM | 0.0255 µM | > 20 µM | 0.658 µM | > 10 µM | > 0.001 µM | > 10 µM | > 10 µM | 0.884 µM | > 10 µM | 3.95 µM
